In general, melting point refers to the temperature of the solid-liquid transition.

A value given as a limit tells only on which side of the number the result lay.

For `Cc1ccc(NC(=O)C2C(=O)N(C)c3ccccc3S2(=O)=O)cc1` (centres undefined), the melting point lay within 218 to 220 °C.
The same measure for `CN(C(=O)OC(C)(C)C)c1cc(Oc2ccc(C(F)(F)F)cc2)ccc1[N+](=O)[O-]`: 92 to 93 °C; for `CCN(CC)C(=O)Cc1c(-c2ccc(C)cc2)nc2c(C)cc(C)nn12`: 155 to 158 °C.
Under `CC(C)(C)CCNC(=O)NCCCl` stands 84 °C; under `CNC(=C[N+](=O)[O-])NCCSCc1[nH]cnc1C`, 141 to 143 °C.
In the case of `COc1ccc(CNc2nc(CCCCC(=O)O)nc3sc(C)c(C)c23)cc1Cl`, the melting point was 156 °C.
Consider `NC(=O)c1cc([N+](=O)[O-])cnc1C(Cl)Cl`, for which the melting point lay in the range of 125 to 127 °C.
The same measure for `CN1C(=O)CC[C@]2(C)c3ccc(-c4ccc(Cl)cc4)cc3CC[C@@H]12`: 192 °C.
`O=C(O)c1cc2c(n(CC3CCCCC3)c1=O)CCCCCC2` yielded a melting point of 162 to 163 °C.
The same measure for `CC(C)c1cc(Oc2ccc(Cl)cc2)nc(C(C)C)c1NC(=S)NC(C)(C)C`: 165 to 167 °C; for `COC(=O)c1c(C(N)=O)[nH]c(-c2ccccc2)c1N`: 177 to 179 °C.
On to `Cc1cc2n(n1)C(c1cccc([N+](=O)[O-])c1)N=N2` (centres undefined), for which the melting point lay within 269 to 275 °C.
The same measure for `Cc1ccc(C2NCCc3c2[nH]c2ccccc32)cc1` (centres undefined): 207 to 209 °C; for `CC(Oc1ccc(Br)cc1)(C(=O)O)c1ccccc1` (centres undefined): 88 to 89 °C; for `Cc1ccc(N2N=C3c4ccncc4CCC3CC2=O)cc1` (centres undefined): 152 to 153 °C.
The same measure for `O=C1C=CC2(C=C1)CC(=O)N2OCc1ccccc1`: 77 to 79 °C; for `COc1cc(C#C[Si](C)(C)C)c(OC)cc1C#C[Si](C)(C)C`: 164 to 165 °C.
The same measure for `CNc1nnc(-c2ccc3ncn(-c4ccc(OC(F)(F)F)cc4)c3c2)o1`: 183 to 184 °C.
As to `CN1N=C(c2ccccc2)C(C)(Cc2ccccc2)NC1=O` (centres undefined), the melting point lay within 174 to 175 °C.
The same measure for `Nc1ccc(NCC(F)(F)F)c([N+](=O)[O-])c1`: 104 to 106 °C.
In the case of `COc1cccc(C(=O)Nc2ccccc2C(c2ccc(O)cc2)c2ccc(O)cc2)c1`, the melting point fell in the range of 165 to 168 °C.
In the case of `Cc1cccc(-c2[nH]c(C(C)C)nc2-c2ccc(F)c(-c3ccc4c(c3)CCS4(=O)=O)c2)n1`, the melting point lay in the range of 119 to 123 °C.
Under `CN(C)C(=O)c1ccc(Cl)c(C#N)c1` stands 193 °C; under `CCCCCCCCCCCCCCCCCCOc1cc(OCCCP(=O)(OCC)OCC)cc(C(=O)O)c1`, 53 to 55 °C.
Under `CC(C)(C)NC(=O)c1ccc2ccccc2c1` stands 155 to 159 °C.
With `O=C(O)C(=O)c1ccc(OCCCCSc2ccc3ccccc3c2)cc1`, the melting point is 113 to 115 °C.
The molecule `Cc1cc(C(=O)O)cc(Cl)c1C1=NC(C)(C(C)C)C(=O)N1` (centres undefined) registered a melting point of 245 to 248 °C.
Take `O=C1NC(=O)c2c1cc1ccc3c(c1c2-c1ccc2c(c1)OCO2)OCC3`: the melting point was above 320 °C.
The same measure for `CCOC(=O)c1cc(CC)sc1Nc1c(Cl)cccc1[N+](=O)[O-]`: 67 to 70 °C; for `Cc1ccc2nc3c(nc2c1)SC(=C(C#N)C#N)S3`: 265 to 267 °C; for `Cc1nc2c3c(c(C(=O)NN4CC4)cc2n1C)CCC(c1ccccc1)N3` (centres undefined): 192 to 193 °C.
The same measure for `CCCCOc1ccc(S(=O)(=O)C2(C(=O)O)CCN(CCCOc3ccccc3)CC2)cc1`: 84 °C; for `Cc1cc(CCl)nc(Nc2ccccc2)n1`: 100 to 101 °C.
In the case of `Cc1cc2c(c(C)c1NC(=O)CC(C)(C)C)CC(C)(C)O2`, the melting point was 181 to 182 °C.
Under `O=C(O)CCOc1ccc(CNC(=O)C2Cc3ccccc3N2S(=O)(=O)c2ccc(-c3cccc(C(F)(F)F)c3)cc2)cc1` (centres undefined) stands 72 °C; under `Cc1ncc(C#N)c(Nc2cccc3[nH]ccc23)c1-c1ccc(OCCCl)cc1`, 185 to 186 °C.
As to `C#CCOc1cc(-n2c(C#N)c(C#N)n(CCC)c2=O)c(F)cc1Cl`, the melting point is 164 to 166 °C.
As for `Cn1cc(Oc2cccc(Cl)c2Cl)c(=O)c(-c2cccc(C(F)(F)F)c2)c1`, the melting point was in the range of 200 to 202 °C.
Molecule `COC(=O)c1ccc(C=O)cc1SCc1ccccc1` showed a melting point of 91 to 93 °C.
In the case of `CC(=O)c1c(-c2ccc(S(C)=O)cc2)[nH]c(-c2ccncc2)c1C` (centres undefined), the melting point was 249 to 250 °C.
The same measure for `N#Cc1ccc2c(c1)S(=O)(=O)N=CN2C1CC1`: 268 to 270 °C; for `CN1C(O)=C(C(=O)Nc2ccc(Cl)cc2)c2ccsc2S1(=O)=O`: 202 to 204 °C.
The same measure for `CS(=O)c1nn(Cc2cccc(C(F)(F)F)c2)c(N)c1C#N` (centres undefined): 143 °C; for `CS(=O)(=O)c1ccc(-c2cc(C(=O)CCCO)nn2-c2ccc(C(F)(F)F)cc2)cc1`: 60 to 63 °C.
The same measure for `COc1cc(CNc2n[nH]c3ncnc(Nc4cccc(Cl)c4)c23)ccc1O`: 223 to 225 °C; for `O=C1NCN(c2ccccc2)C12CCN(CCCn1c(=O)[nH]c3cc(Cl)ccc31)CC2`: 234 °C; for `CSc1cc(N)nc(C(N)=O)c1`: 158 to 159 °C.
In the case of `Oc1ccc2c(c1)C13CCCCC1N(C2)NCC3` (single isomer, unassigned; (-)), the melting point fell in the range of 244 to 246 °C.
`CCOC(=O)OC1=C(c2c(C)cc(C)cc2C)C(=O)SC12CCN(OC)CC2` showed a melting point of 87 to 89 °C.
Under `CS(=O)(=O)c1ccc(Oc2cc(OCc3cccc(Cl)n3)c3[nH]c(C(N)=O)cc3c2)cc1` stands 259 to 260 °C; under `CC(C(=O)O)c1ccc(C(=O)c2cccs2)c(Cl)c1` (centres undefined), 82.5 °C; under `OCc1cccc2c(Cl)c3ccccc3cc12`, 138 to 140 °C.
The same measure for `O=C(c1ccc(Cl)cc1)c1cccc([N+](=O)[O-])c1N1CCCCC1`: 141 °C; for `CC(C)C(=O)N1CCC(C2(c3cccc(-c4ccccc4)c3)N=C(N)N(C)C2=O)CC1` (centres undefined): 131 to 134 °C; for `CN(C)Cc1ccc2sc(S(N)(=O)=O)cc2c1`: 172 to 174 °C.
The same measure for `C[C@@H]1CN(C(=O)[C@@](C)(O)C(F)(F)F)[C@@H](C)CN1S(=O)(=O)c1cccs1`: 116 to 117 °C; for `CC(C)(C)c1csc(N)c1C(N)=O`: 145 °C; for `Cc1ccc(C(=O)C2=C(O)C(=O)N(c3ncc(S(=O)(=O)N(C)C)s3)C2c2ccc(C(C)C)cc2)cc1` (centres undefined): 237 to 241 °C.
With `CS(=O)(=O)c1ccc(-c2cc(CCCO[N+](=O)[O-])nn2CC2CCCCC2)cc1`, the melting point was 76 to 77 °C.
Under `N#Cc1ccc(Cl)cc1NC(=O)c1ccc(Br)cc1` stands 151 to 152 °C; under `CN(C)C(=N[N+](=O)[O-])N(C)Cc1ccc(Cl)nc1`, 99 to 101 °C.
The same measure for `CC(C)(C)OC(=O)N(C(=O)OC(C)(C)C)c1cc(-c2ccc(N)cc2)n(C(=O)OC(C)(C)C)n1`: 84 to 85 °C; for `CC(C)(C)C1=CC(=CC#Cc2ccc(C(=O)O)c(O)c2)C=C(C(C)(C)C)C1=O`: 203 °C.
The molecule `CCCP(=O)(CCC)Cc1ccc(N)cc1` registered a melting point of 104 to 106 °C.

The values above are taken from a melting point compilation (Tetko et al.; mined from patent text by program, amines drawn as free bases though some values may be those of a salt).
